Source: article PMC3775947 (Clinical lymphoma, myeloma & leukemia, 2013)
Where two headings read alike, the source gives them in different places.

Columns and labels:
patients with AML = details: cited from earlier work; for Rates of response: LDAC or decitabine alone
[1] = human, in vivo

Row | Compound | Rates of response (patients with AML) [%] | Infection frequency (patients with AML; LDAC monotherapy) [%] | AUC0–8 ratio, Day 7:Day10, LDAC ([1]; 800 mg) | AUC0–8 ratio, Day 7:Day10, LDAC ([1]; 1000 mg) | AUC0–8 ratio, Day 7:Day10, LDAC ([1]; 1200 mg) | Time of peak plasma concentrations (Cmax) post administration ([1]; sc, 20 mg) [h] | t½, monophasic elimination ([1]; sc, 20 mg) [h]
1 | Nc1ncn([C@H]2C[C@H](O)[C@@H](CO)O2)c(=O)n1 [decitabine] | ~20 | – | – | – | – | – | –
2 | Nc1ccn([C@@H]2O[C@H](CO)[C@@H](O)[C@@H]2O)c(=O)n1 [LDAC, cytosine arabinoside] | ~20 | 45 | 1.1 (14.6) ng.h/mL | 1.2 (24.2) ng.h/mL | 0.79 (105.7) ng.h/mL | 0.25 to 1 | 1 to 2
